The target in series [1] is human recombinant cytochrome P450 2C19 (Homo sapiens, UniProt P33261). As to the kind of experiment: Biological Test Example 8: CYP2C19 inhibition ([N-methyl-14C]-Diazepam N-demethylation).
The test system of the next series is Plasma protein. Description: Biological Test Example 5: fraction unbound in human plasma (equilibrium dialysis). Type of series: in vitro ADME. (Equilibrium dialysis compares concentrations on both sides of a semipermeable membrane.)
Series [2] deals with human recombinant cytochrome P450 3A4 (Homo sapiens, UniProt P08684).
In series [3] the target is human recombinant cytochrome P450 2C9 (Homo sapiens, UniProt P11712). Description: Biological Test Example 7: CYP2C9 inhibition ([O-methyl-14C]-Naproxen O-demethylation).

Some results are limits rather than exact numbers.

Chain of human recombinant cytochrome P450 2C19 (P33261 whole entry): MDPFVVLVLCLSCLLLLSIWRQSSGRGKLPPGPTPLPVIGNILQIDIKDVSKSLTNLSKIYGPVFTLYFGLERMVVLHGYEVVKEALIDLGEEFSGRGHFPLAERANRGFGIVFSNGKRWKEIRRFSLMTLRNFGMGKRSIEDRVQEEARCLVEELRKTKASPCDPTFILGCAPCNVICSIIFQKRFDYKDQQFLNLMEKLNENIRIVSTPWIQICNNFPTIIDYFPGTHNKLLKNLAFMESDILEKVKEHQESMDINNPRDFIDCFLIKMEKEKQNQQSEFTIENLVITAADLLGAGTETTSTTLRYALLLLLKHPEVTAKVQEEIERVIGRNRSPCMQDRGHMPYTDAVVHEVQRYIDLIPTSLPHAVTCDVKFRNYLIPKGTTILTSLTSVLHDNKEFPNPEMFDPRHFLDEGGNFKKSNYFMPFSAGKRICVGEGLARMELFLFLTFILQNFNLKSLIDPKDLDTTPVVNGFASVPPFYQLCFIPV
Chain of human recombinant cytochrome P450 2C9 (P11712 whole entry): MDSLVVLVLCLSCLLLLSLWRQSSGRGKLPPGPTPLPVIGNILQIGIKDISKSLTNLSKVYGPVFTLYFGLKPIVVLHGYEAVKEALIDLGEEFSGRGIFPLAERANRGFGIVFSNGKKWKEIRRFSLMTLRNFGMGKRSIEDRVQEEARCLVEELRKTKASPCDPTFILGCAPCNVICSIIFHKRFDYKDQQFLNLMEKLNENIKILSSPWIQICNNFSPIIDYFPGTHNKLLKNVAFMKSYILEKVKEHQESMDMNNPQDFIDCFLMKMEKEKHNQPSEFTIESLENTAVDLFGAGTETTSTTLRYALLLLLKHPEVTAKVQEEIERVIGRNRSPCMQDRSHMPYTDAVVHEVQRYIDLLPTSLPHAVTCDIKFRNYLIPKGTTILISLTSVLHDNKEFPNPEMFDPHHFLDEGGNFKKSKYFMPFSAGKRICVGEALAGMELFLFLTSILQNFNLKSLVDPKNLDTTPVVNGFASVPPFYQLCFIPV
Chain of human recombinant cytochrome P450 3A4 (P08684 whole entry): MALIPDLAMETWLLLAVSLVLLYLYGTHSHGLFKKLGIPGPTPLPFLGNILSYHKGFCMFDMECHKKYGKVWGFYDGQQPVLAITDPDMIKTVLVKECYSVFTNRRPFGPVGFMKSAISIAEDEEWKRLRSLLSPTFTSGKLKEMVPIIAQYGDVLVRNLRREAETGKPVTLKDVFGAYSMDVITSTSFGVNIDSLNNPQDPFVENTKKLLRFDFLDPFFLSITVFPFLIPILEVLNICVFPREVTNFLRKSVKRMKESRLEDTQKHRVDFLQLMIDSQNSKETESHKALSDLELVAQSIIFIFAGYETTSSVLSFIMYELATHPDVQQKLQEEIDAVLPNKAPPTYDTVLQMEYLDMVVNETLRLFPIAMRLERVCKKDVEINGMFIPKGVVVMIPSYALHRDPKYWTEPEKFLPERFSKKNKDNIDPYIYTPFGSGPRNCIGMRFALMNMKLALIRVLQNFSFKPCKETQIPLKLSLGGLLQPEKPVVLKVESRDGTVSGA

Broadly, the IC50 is the concentration that gives 50% inhibition. For the compound `CC[C@@H](c1ccc(-c2ccc(=O)n(C)c2)cc1)N1CC[C@](CC(C)(C)O)(c2ccccc2)OC1=O` [Example 54, (S)-6-(2-hydroxy-2-methylpropyl)-3-((S)-1-(4-(1-methyl-6-oxo-1,6-dihydropyridin-3-yl)phenyl)propyl)-6-phenyl-1,3-oxazinan-2-one], the IC50 in series [1] amounted to 18 µM. For the same compound, the “Biological Test Example 5 (%)” value in the series with Plasma protein (Examples) was 9.1%.

Consider `CCn1cc(-c2ccc([C@H](C)N3CC[C@](CC(C)(C)O)(c4ccc(F)cc4)OC3=O)cc2)ccc1=O` [Example 62, (S)-3-((S)-1-(4-(1-ethyl-6-oxo-1,6-dihydropyridin-3-yl)phenyl)ethyl)-6-(4-fluorophenyl)-6-(2-hydroxy-2-methylpropyl)-1,3-oxazinan-2-one], for which the values for the IC50 in series [2] and in series [1] were 48 µM and 38 µM, respectively.

Take `C[C@@H](c1ccc(-c2ccn(CCF)c(=O)c2)cc1)N1CC[C@](CC(C)(C)O)(c2ccccc2)OC1=O` [Example 25, (S)-3-((S)-1-(4-(1-(2-fluoroethyl)-2-oxo-1,2-dihydropyridin-4-yl)phenyl)ethyl)-6-(2-hydroxy-2-methylpropyl)-6-phenyl-1,3-oxazinan-2-one]: the values for the IC50 in series [2] and in series [3] were 33 µM and 30 µM, respectively.

`CC[C@@H](c1ccc(-c2ccn(C)c(=O)c2)cc1)N1CC[C@](CC)(c2ccccc2)OC1=O` [Example 58, (R)-6-ethyl-3-((S)-1-(4-(1-methyl-2-oxo-1,2-dihydropyridin-4-yl)phenyl)propyl)-6-phenyl-1,3-oxazinan-2-one]: the IC50 in series [2] amounted to 8 µM; in series [1], 2 µM; in series [3] it was 3 µM.

For the compound `CCn1cc(-c2ccc([C@H](C)N3CC[C@](CC(C)(C)O)(c4ccccc4)OC3=O)cc2)ccc1=O` [Example 53, (S)-3-((S)-1-(4-(1-ethyl-6-oxo-1,6-dihydropyridin-3-yl)phenyl)ethyl)-6-(2-hydroxy-2-methylpropyl)-6-phenyl-1,3-oxazinan-2-one], the “Biological Test Example 5 (%)” value with Plasma protein (Examples) is listed as 12.8%.

For the compound `CC(C)n1cc(-c2ccc([C@H](C)N3CC[C@](CC(C)(C)O)(c4ccccc4)OC3=O)cc2)ccc1=O` [Example 59, (S)-6-(2-hydroxy-2-methylpropyl)-3-((S)-1-(4-(1-isopropyl-6-oxo-1,6-dihydropyridin-3-yl)phenyl)ethyl)-6-phenyl-1,3-oxazinan-2-one], in series [1], the IC50 was 37 µM.

As for `C[C@@H](c1ccc(-c2ccc(=O)n(C)c2)cc1)N1CC[C@](CC(C)(C)C#N)(c2ccc(F)cc2)OC1=O` [Example 69, 3-((R)-6-(4-fluorophenyl)-3-((S)-1-(4-(1-methyl-6-oxo-1,6-dihydropyridin-3-yl)phenyl)ethyl)-2-oxo-1,3-oxazinan-6-yl)-2,2-dimethylpropanenitrile], the IC50 in series [2] was found to be 23 µM; in series [3], 38 µM.

With `CCn1ccc(-c2ccc([C@H](C)N3CC[C@](CC(C)(C)O)(c4ccccc4)OC3=O)cc2)cc1=O` [Example 65, (S)-3-((S)-1-(4-(1-ethyl-2-oxo-1,2-dihydropyridin-4-yl)phenyl)ethyl)-6-(2-hydroxy-2-methylpropyl)-6-phenyl-1,3-oxazinan-2-one], the IC50 is greater than 50 µM in series [2], 25 µM in series [1] and greater than 50 µM in series [3].

Take `Cc1cc(-c2ccc([C@H](C)N3CC[C@](CC(C)(C)O)(c4ccccc4)OC3=O)cc2)cc(=O)n1C` [Example 64, (S)-3-((S)-1-(4-(1,6-dimethyl-2-oxo-1,2-dihydropyridin-4-yl)phenyl)ethyl)-6-(2-hydroxy-2-methylpropyl)-6-phenyl-1,3-oxazinan-2-one]: the values for the half-inhibitory concentration (IC50) in series [1] and in series [3] were 17 µM and 33 µM, respectively.

As to `C[C@@H](c1ccc(-c2ccc(=O)n(C(F)F)c2)cc1)N1CC[C@](CC(C)(C)O)(c2ccccc2)OC1=O` [Example 4, (S)-3-((S)-1-(4-(1-(difluoromethyl)-6-oxo-1,6-dihydropyridin-3-yl)phenyl)ethyl)-6-(2-hydroxy-2-methylpropyl)-6-phenyl-1,3-oxazinan-2-one], the IC50 in series [2] amounted to 21 µM; in series [3], 17 µM.

As for `Cc1cc(-c2ccc([C@H](C)N3CC[C@](CC(C)(C)O)(c4ccccc4)OC3=O)cc2)cn(C)c1=O` [Example 61, (S)-3-((S)-1-(4-(1,5-dimethyl-6-oxo-1,6-dihydropyridin-3-yl)phenyl)ethyl)-6-(2-hydroxy-2-methylpropyl)-6-phenyl-1,3-oxazinan-2-one], the IC50 was 18 µM in series [1] and 40 µM in series [3].

Turning to `C[C@@H](c1ccc(-c2cc[nH]c(=O)c2)cc1)N1CC[C@](CC(C)(C)C#N)(c2ccccc2)OC1=O` [Example 14, 2,2-dimethyl-3-((R)-2-oxo-3-((S)-1-(4-(2-oxo-1,2-dihydropyridin-4-yl)phenyl)ethyl)-6-phenyl-1,3-oxazinan-6-yl)propanenitrile], the IC50 in series [2] was 25 µM; in series [1], 24 µM; in series [3], 18 µM.

Take `C[C@@H](c1ccc(-c2ccc(=O)n(C3CC3)c2)cc1)N1CC[C@](CC(C)(C)O)(c2ccccc2)OC1=O` [Example 3, (S)-3-((S)-1-(4-(1-cyclopropyl-6-oxo-1,6-dihydropyridin-3-yl)phenyl)ethyl)-6-(2-hydroxy-2-methylpropyl)-6-phenyl-1,3-oxazinan-2-one]: the IC50 came out at 44 µM in series [2] and 38 µM in series [3]. In the series on Plasma protein (Comparator Compounds), the “Biological Test Example 5 (%)” value turned out to be 0.3%.

Consider `CCn1c(C)cc(-c2ccc([C@H](C)N3CC[C@](CC(C)(C)O)(c4ccccc4)OC3=O)cc2)cc1=O` [Example 72, (S)-3-((S)-1-(4-(1-ethyl-6-methyl-2-oxo-1,2-dihydropyridin-4-yl)phenyl)ethyl)-6-(2-hydroxy-2-methylpropyl)-6-phenyl-1,3-oxazinan-2-one], for which the IC50 stood at 41 µM in series [2], 8 µM in series [1] and 35 µM in series [3].

For the compound `C[C@@H](c1ccc(-c2ccn(C3CC3)c(=O)c2)cc1)N1CC[C@](CC(C)(C)O)(c2ccccc2F)OC1=O` [Example 88, (S)-3-((S)-1-(4-(1-cyclopropyl-2-oxo-1,2-dihydropyridin-4-yl)phenyl)ethyl)-6-(2-fluorophenyl)-6-(2-hydroxy-2-methylpropyl)-1,3-oxazinan-2-one], the IC50 in series [3] was found to be 28 µM.

For the compound `CC[C@@H](c1ccc(-c2ccc(=O)n(CC)c2)cc1)N1CC[C@](CC(C)(C)O)(c2ccccc2)OC1=O` [Example 52, (S)-3-((S)-1-(4-(1-ethyl-6-oxo-1,6-dihydropyridin-3-yl)phenyl)propyl)-6-(2-hydroxy-2-methylpropyl)-6-phenyl-1,3-oxazinan-2-one], the “Biological Test Example 5 (%)” value in the series on Plasma protein (Examples) is recorded as 9.0%.

Consider `C[C@@H](c1ccc(-c2ccc(=O)n(CC(F)(F)F)c2)cc1)N1CC[C@](CC(C)(C)O)(c2ccccc2)OC1=O` [Example 67, (S)-6-(2-hydroxy-2-methylpropyl)-3-((S)-1-(4-(6-oxo-1-(2,2,2-trifluoroethyl)-1,6-dihydropyridin-3-yl)phenyl)ethyl)-6-phenyl-1,3-oxazinan-2-one], for which the IC50 in series [2] turned out to be 28 µM; in series [1], 34 µM; in series [3] it was 41 µM.

Regarding `C[C@@H](c1ccc(-c2ccc(=O)n(C)c2)cc1)N1CC[C@](CC(C)(C)NS(C)(=O)=O)(c2ccccc2)OC1=O` [Example 11, N-(2-methyl-1-((S)-3-((S)-1-(4-(1-methyl-6-oxo-1,6-dihydropyridin-3-yl)phenyl)ethyl)-2-oxo-6-phenyl-1,3-oxazinan-6-yl)propan-2-yl)methanesulfonamide], in the series with Plasma protein (Comparator Compounds), the “Biological Test Example 5 (%)” value turned out to be 0.7%.

Regarding `CC(C)n1ccc(-c2ccc([C@H](C)N3CC[C@](CC(C)(C)O)(c4ccccc4)OC3=O)cc2)cc1=O` [Example 68, (S)-6-(2-hydroxy-2-methylpropyl)-3-((S)-1-(4-(1-isopropyl-2-oxo-1,2-dihydropyridin-4-yl)phenyl)ethyl)-6-phenyl-1,3-oxazinan-2-one], the results for the IC50 in series [2], in series [1] and in series [3] were 43 µM, 28 µM and 47 µM, respectively.

Take `C[C@@H](c1ccc(-c2ccn(C(F)F)c(=O)c2)cc1)N1CC[C@](CC(C)(C)O)(c2ccccc2)OC1=O` [Example 5, (S)-3-((S)-1-(4-(1-(difluoromethyl)-2-oxo-1,2-dihydropyridin-4-yl)phenyl)ethyl)-6-(2-hydroxy-2-methylpropyl)-6-phenyl-1,3-oxazinan-2-one]: the IC50 in series [2] came to 29 µM.

On to `C[C@@H](c1ccc(-c2ccc(=O)n(C)c2)cc1)N1CC[C@](CCCO)(c2ccccc2)OC1=O` [Example 30, (R)-6-(3-hydroxypropyl)-3-((S)-1-(4-(1-methyl-6-oxo-1,6-dihydropyridin-3-yl)phenyl)ethyl)-6-phenyl-1,3-oxazinan-2-one], for which the IC50 in series [1] was found to be 27 µM. Further, the “Biological Test Example 5 (%)” value in the series on Plasma protein (Examples) was found to be 13.9%.

In the case of `CCn1cc(-c2ccc([C@H](C)N3CC[C@](CC(C)(C)O)(c4ccccc4)OC3=O)cc2)cc(C)c1=O` [Example 70, (S)-3-((S)-1-(4-(1-ethyl-5-methyl-6-oxo-1,6-dihydropyridin-3-yl)phenyl)ethyl)-6-(2-hydroxy-2-methylpropyl)-6-phenyl-1,3-oxazinan-2-one], the values for the IC50 in series [2] and in series [1] were 28 µM and 23 µM, respectively.

In the case of `C[C@@H](c1ccc(-c2ccn(C)c(=O)c2)cc1)N1CC[C@](CC(C)(C)O)(c2ccccc2)OC1=O` [Example 48, (S)-6-(2-hydroxy-2-methylpropyl)-3-((S)-1-(4-(1-methyl-2-oxo-1,2-dihydropyridin-4-yl)phenyl)ethyl)-6-phenyl-1,3-oxazinan-2-one], the “Biological Test Example 5 (%)” value in the series on Plasma protein (Examples) is 8.7%.

Turning to `C[C@@H](c1ccc(-c2ccc(=O)[nH]c2)cc1)N1CC[C@](CC(C)(C)C#N)(c2ccccc2)OC1=O` [Example 71, 2,2-dimethyl-3-((R)-2-oxo-3-((S)-1-(4-(6-oxo-1,6-dihydropyridin-3-yl)phenyl)ethyl)-6-phenyl-1,3-oxazinan-6-yl)propanenitrile], the IC50 in series [2] was 6 µM; in series [1] it was 24 µM; in series [3] it was 17 µM.

Values taken from patent EP2424865B1 (Boehringer Ingelheim International GmbH, priority 2009, dated 2010).
